Experimental data published in US20230150974A1 (Foghorn Therapeutics Inc., priority 2020, published 2023).

Columns and labels:
HiBit-BRG1 = biological target: T1, HiBit-BRG1 (Homo sapiens, UniProt P51532); assay: HiBit-BRG1 cell-based degradation assay (Nano-Glo HiBiT Lytic Detection); conditions: HeLa cells expressing HiBit-BRG1 and LgBit, 24 h; for DC50: read-out: BRG1 HiBit Degradation IC50; for Dmax: read-out: BRG1 HiBit Degradation Maximum (%)
T1 construct: expressed in transfected cells
In short: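 Luminescence from reconstituted NanoBiT luciferase after lytic detection served as read-out of remaining HiBit-BRG1 in stable HeLa cells, which also express LgBit. Cells were seeded at 5000 per well and incubated with compound for 24 h. DMSO and a 2 μM known degrader defined the control range.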

HiBiT-BRM = biological target: T2, HiBiT-BRM (Homo sapiens, UniProt P51531); assay: HiBiT-BRM cell-based degradation assay (Nano-Glo HiBiT Lytic Detection); conditions: HeLa cells expressing HiBiT-BRM, 24 h; for DC50: read-out: BRM HiBit Degradation IC50
T2 construct: expressed in transfected cells
T2 sequence (P51531 whole entry): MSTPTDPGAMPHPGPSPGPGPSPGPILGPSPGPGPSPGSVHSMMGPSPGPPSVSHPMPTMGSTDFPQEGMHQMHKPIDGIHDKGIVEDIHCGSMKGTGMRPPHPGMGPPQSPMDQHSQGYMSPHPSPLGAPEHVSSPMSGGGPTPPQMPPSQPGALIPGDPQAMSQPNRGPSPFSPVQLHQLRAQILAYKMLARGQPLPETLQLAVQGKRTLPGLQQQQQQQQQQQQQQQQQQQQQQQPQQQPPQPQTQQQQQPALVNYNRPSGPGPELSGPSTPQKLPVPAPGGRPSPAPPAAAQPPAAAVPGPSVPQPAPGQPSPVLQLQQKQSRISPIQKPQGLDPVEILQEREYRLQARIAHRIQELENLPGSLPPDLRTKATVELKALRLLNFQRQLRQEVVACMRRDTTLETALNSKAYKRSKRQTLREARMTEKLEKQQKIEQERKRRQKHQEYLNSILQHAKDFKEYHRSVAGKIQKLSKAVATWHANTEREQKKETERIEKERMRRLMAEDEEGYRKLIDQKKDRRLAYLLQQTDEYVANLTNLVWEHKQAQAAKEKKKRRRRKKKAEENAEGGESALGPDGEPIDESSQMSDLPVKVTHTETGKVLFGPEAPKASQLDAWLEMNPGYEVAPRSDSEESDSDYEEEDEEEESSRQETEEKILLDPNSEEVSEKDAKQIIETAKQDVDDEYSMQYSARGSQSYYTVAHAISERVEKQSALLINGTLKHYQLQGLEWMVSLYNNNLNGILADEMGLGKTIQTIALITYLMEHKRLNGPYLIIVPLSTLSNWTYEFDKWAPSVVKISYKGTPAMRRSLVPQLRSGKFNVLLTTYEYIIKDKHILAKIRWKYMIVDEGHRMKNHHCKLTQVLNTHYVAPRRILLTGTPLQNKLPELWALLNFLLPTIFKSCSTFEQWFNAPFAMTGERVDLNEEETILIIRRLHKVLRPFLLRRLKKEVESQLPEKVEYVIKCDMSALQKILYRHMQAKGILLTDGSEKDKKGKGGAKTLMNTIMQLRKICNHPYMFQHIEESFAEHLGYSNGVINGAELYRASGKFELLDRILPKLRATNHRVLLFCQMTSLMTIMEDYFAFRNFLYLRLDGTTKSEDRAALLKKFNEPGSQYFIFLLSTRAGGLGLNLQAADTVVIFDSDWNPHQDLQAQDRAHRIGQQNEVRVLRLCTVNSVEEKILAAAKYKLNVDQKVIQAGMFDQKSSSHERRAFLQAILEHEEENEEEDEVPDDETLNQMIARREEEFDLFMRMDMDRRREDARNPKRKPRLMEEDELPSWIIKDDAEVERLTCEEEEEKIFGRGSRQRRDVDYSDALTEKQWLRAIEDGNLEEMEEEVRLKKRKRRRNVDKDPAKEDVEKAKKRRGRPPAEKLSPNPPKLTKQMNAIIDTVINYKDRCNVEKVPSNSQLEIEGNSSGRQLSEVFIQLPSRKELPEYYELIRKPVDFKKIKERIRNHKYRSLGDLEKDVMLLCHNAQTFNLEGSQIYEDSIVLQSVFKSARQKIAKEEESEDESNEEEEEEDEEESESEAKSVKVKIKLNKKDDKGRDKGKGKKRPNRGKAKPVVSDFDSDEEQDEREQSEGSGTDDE
In short: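 Luminescence from HiBiT–LgBiT complementation in lysates of a stable HiBiT-BRM HeLa line measured after 24 h compound exposure. Degradation expressed as percent relative to DMSO-treated cells and cells given 2 μM of a known BRM/BRG1 degrader.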

T1 sequence (P51532 whole entry): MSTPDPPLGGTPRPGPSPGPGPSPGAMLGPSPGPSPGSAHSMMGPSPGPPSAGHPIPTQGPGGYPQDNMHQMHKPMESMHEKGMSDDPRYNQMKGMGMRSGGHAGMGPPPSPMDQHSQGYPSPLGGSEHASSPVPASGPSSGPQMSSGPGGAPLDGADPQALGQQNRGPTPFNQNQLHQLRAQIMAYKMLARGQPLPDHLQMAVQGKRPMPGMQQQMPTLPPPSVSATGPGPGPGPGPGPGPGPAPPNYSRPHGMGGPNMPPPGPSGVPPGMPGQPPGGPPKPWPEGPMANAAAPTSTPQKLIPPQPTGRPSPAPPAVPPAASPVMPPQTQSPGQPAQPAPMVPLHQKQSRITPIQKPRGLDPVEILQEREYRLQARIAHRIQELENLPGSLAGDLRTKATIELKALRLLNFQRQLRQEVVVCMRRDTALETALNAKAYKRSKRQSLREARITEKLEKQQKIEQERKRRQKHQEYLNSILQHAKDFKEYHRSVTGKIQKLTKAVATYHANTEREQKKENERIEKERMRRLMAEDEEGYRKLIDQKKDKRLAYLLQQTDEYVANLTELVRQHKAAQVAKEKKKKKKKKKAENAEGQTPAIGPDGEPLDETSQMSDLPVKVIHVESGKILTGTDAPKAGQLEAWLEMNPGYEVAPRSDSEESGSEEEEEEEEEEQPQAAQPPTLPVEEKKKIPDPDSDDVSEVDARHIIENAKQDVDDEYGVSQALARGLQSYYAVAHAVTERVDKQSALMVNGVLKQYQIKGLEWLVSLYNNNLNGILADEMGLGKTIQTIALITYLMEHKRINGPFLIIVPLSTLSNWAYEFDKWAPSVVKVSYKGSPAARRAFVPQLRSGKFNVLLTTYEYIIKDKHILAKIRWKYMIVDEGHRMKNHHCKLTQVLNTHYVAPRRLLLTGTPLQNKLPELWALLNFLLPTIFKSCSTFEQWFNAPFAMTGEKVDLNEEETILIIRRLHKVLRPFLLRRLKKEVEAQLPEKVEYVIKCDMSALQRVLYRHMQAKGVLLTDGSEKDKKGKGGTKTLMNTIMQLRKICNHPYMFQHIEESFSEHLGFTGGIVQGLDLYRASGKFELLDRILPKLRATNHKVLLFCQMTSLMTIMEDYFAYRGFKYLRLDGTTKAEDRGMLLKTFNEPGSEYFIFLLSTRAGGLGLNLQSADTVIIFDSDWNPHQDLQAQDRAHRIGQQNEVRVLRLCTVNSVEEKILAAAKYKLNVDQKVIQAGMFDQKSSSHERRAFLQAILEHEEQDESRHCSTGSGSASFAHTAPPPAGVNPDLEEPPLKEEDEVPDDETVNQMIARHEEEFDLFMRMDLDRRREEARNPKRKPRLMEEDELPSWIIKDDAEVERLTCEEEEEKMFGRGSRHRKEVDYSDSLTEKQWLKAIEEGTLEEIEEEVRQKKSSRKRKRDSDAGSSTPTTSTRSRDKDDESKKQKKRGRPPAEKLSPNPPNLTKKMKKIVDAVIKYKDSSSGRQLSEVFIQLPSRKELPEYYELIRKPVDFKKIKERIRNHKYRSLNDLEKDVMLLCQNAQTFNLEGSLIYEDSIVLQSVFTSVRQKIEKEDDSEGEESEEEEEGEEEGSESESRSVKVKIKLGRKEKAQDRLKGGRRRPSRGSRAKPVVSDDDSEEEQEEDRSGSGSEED

`Nc1nnc(-c2ccccc2O)cc1OCCc1ccc(CNCCCCOc2cccc3c2C(=O)N(C2CCC(=O)NC2=O)C3=O)cc1` (stereo not drawn) [Compound 121, 4-(4-((4-(2-((3-amino-6-(2-hydroxyphenyl)pyridazin-4-yl)oxy)ethyl)benzyl)amino)butoxy)-2-(2,6-dioxopiperidin-3-yl)isoindoline-1,3-dione] was tested, and the DC50 (HiBit-BRG1) was greater than 1000 nM, the Dmax (HiBit-BRG1) was less than 50% and the “BRM HiBit Degradation Maximum (%)” value (HiBiT-BRM) was “C (“C” indicates maximum degradation <50%)”. For the same compound, the DC50 (HiBiT-BRM) was greater than 1000 nM.

`Nc1nnc(-c2ccccc2O)cc1OCCc1ccc(CNCCCOc2cccc3c2C(=O)N(C2CCC(=O)NC2=O)C3=O)cc1` (stereo not drawn) [Compound 122, 4-[3-([[4-(2-[[3-amino-6-(2-hydroxyphenyl)pyridazin-4-yl]oxy]ethyl)phenyl]methyl]amino)propoxy]-2-(2,6-dioxopiperidin-3-yl)isoindole-1,3-dione] was tested, and the DC50 (HiBit-BRG1) was greater than 1000 nM, the Dmax (HiBit-BRG1) was greater than 50% and the “BRM HiBit Degradation Maximum (%)” value (HiBiT-BRM) was “B (“B” indicates maximum degradation ≥50%)”. The DC50 (HiBiT-BRM) was greater than 100 nM.

`Nc1nnc(-c2ccccc2O)cc1OCCc1ccc(CNCCCC2CN(c3ccc4c(c3)C(=O)N(C3CCC(=O)NC3=O)C4=O)C2)cc1` (stereo not drawn) [Compound 123, 5-[3-[3-([[4-(2-[[3-amino-6-(2-hydroxyphenyl)pyridazin-4-yl]oxy]ethyl)phenyl]methyl]amino)propyl]azetidin-1-yl]-2-(2,6-dioxopiperidin-3-yl)isoindole-1,3-dione] was tested, and the DC50 (HiBit-BRG1) was greater than 1000 nM, the Dmax (HiBit-BRG1) was less than 50% and the “BRM HiBit Degradation Maximum (%)” value (HiBiT-BRM) was “B (“B” indicates maximum degradation ≥50%)”. The DC50 (HiBiT-BRM) was greater than 10 nM.

`Nc1nnc(-c2cccc(Cl)c2O)cc1OCCc1ccc(CNCCCCCOc2cccc3c2C(=O)N(C2CCC(=O)NC2=O)C3=O)cc1` (stereo not drawn) [Compound 124, 4-((5-((4-(2-((3-amino-6-(3-chloro-2-hydroxyphenyl)pyridazin-4-yl)oxy)ethyl)benzyl)amino)pentyl)oxy)-2-(2,6-dioxopiperidin-3-yl)isoindoline-1,3-dione] was tested, and the DC50 (HiBit-BRG1) was greater than 1000 nM, the Dmax (HiBit-BRG1) was less than 50% and the “BRM HiBit Degradation Maximum (%)” value (HiBiT-BRM) was “C (“C” indicates maximum degradation <50%)”. It also gave a DC50 (HiBiT-BRM) greater than 1000 nM.

With `Nc1nnc(-c2ccccc2O)cc1OCCc1ccc(CNC(=O)CCCCNc2ccc3nnn(C4CCC(=O)NC4=O)c(=O)c3c2)cc1` (stereo not drawn) [Compound 125, N-(4-(2-((3-amino-6-(2-hydroxyphenyl)pyridazin-4-yl)oxy)ethyl)benzyl)-5-((3-(2,6-dioxopiperidin-3-yl)-4-oxo-3,4-dihydrobenzo[d][1,2,3]triazin-6-yl)amino)pentanamide] the DC50 (HiBit-BRG1) was greater than 1000 nM, the Dmax (HiBit-BRG1) was greater than 50% and the “BRM HiBit Degradation Maximum (%)” value (HiBiT-BRM) was “C (“C” indicates maximum degradation <50%)”. It also gave a DC50 (HiBiT-BRM) greater than 1000 nM.

With `Nc1nnc(-c2ccccc2O)cc1OCCc1ccc(CN2CCN(CCOc3cccc4c3C(=O)N(C3CCC(=O)NC3=O)C4=O)CC2)cc1` (stereo not drawn) [Compound 126, 4-[2-(4-[[4-(2-[[3-amino-6-(2-hydroxyphenyl)pyridazin-4-yl]oxy]ethyl)phenyl]methyl]piperazin-1-yl)ethoxy]-2-(2,6-dioxopiperidin-3-yl)isoindole-1,3-dione] the DC50 (HiBit-BRG1) was greater than 1000 nM, the Dmax (HiBit-BRG1) was less than 50% and the “BRM HiBit Degradation Maximum (%)” value (HiBiT-BRM) was “C (“C” indicates maximum degradation <50%)”. It also gave a DC50 (HiBiT-BRM) greater than 1000 nM.

For `Nc1nnc(-c2ccccc2O)cc1OCCc1ccc(CN2CC(CCCOc3cccc4c3C(=O)N(C3CCC(=O)NC3=O)C4=O)C2)cc1` (stereo not drawn) [Compound 127, 4-[3-(1-[[4-(2-[[3-amino-6-(2-hydroxyphenyl)pyridazin-4-yl]oxy]ethyl)phenyl]methyl]azetidin-3-yl)propoxy]-2-(2,6-dioxopiperidin-3-yl)isoindole-1,3-dione], the DC50 (HiBit-BRG1) was greater than 1000 nM, the Dmax (HiBit-BRG1) was less than 50% and the “BRM HiBit Degradation Maximum (%)” value (HiBiT-BRM) was “C (“C” indicates maximum degradation <50%)”. The DC50 (HiBiT-BRM) was greater than 1000 nM.

For `Nc1nnc(-c2ccccc2O)cc1OCCc1ccc(CNC(=O)CCCCOc2ccc3c(c2)C(=O)N(C2CCC(=O)NC2=O)C3)cc1` (stereo not drawn) [Compound 128, N-(4-(2-((3-amino-6-(2-hydroxyphenyl)pyridazin-4-yl)oxy)ethyl)benzyl)-5-((2-(2,6-dioxopiperidin-3-yl)-3-oxoisoindolin-5-yl)oxy)pentanamide], the DC50 (HiBit-BRG1) was greater than 1000 nM, the “BRM HiBit Degradation Maximum (%)” value (HiBiT-BRM) was “C (“C” indicates maximum degradation <50%)” and the DC50 (HiBiT-BRM) was greater than 1000 nM.

With `Nc1nnc(-c2ccccc2O)cc1OCCc1ccc(CNC(=O)CCCCOc2ccc3c(c2)CN(C2CCC(=O)NC2=O)C3=O)cc1` (stereo not drawn) [Compound 129, N-(4-(2-((3-amino-6-(2-hydroxyphenyl)pyridazin-4-yl)oxy)ethyl)benzyl)-5-((2-(2,6-dioxopiperidin-3-yl)-1-oxoisoindolin-5-yl)oxy)pentanamide] the DC50 (HiBit-BRG1) was greater than 1000 nM, the “BRM HiBit Degradation Maximum (%)” value (HiBiT-BRM) was “C (“C” indicates maximum degradation <50%)” and the DC50 (HiBiT-BRM) was greater than 1000 nM.

`Nc1nnc(-c2ccccc2O)cc1OCCc1ccc(CNC(=O)CCCCOc2cccc3c2CN(C2CCC(=O)NC2=O)C3=O)cc1` (stereo not drawn) [Compound 130, N-(4-(2-((3-amino-6-(2-hydroxyphenyl)pyridazin-4-yl)oxy)ethyl)benzyl)-5-((2-(2,6-dioxopiperidin-3-yl)-1-oxoisoindolin-4-yl)oxy)pentanamide] was tested, and the DC50 (HiBit-BRG1) was greater than 1000 nM, the Dmax (HiBit-BRG1) was less than 50% and the “BRM HiBit Degradation Maximum (%)” value (HiBiT-BRM) was “C (“C” indicates maximum degradation <50%)”. The DC50 (HiBiT-BRM) was greater than 1000 nM.

`Cc1ncsc1-c1ccc(CNC(=O)[C@@H]2C[C@@H](O)CN2C(=O)[C@@H](NC(=O)CCCCCCCCCNCc2ccc(CCN(C)c3cc(-c4ccccc4O)nnc3N)cc2)C(C)(C)C)cc1` [Compound 131, (2S,4R)-1-((S)-2-(10-((4-(2-((3-amino-6-(2-hydroxyphenyl)pyridazin-4-yl)(methyl)amino)ethyl)benzyl)amino)decanamido)-3,3-dimethylbutanoyl)-4-hydroxy-N-(4-(4-methylthiazol-5-yl)benzyl)pyrrolidine-2-carboxamide] was tested, and the DC50 (HiBit-BRG1) was greater than 100 nM, the Dmax (HiBit-BRG1) was greater than 50% and the “BRM HiBit Degradation Maximum (%)” value (HiBiT-BRM) was “A (“A” indicates maximum degradation ≥75%)”. For the same compound, the DC50 (HiBiT-BRM) was greater than 100 nM.

For `Cc1ncsc1-c1ccc(CNC(=O)[C@@H]2C[C@@H](O)CN2C(=O)[C@@H](NC(=O)CCCCCCCCC(=O)NCc2ccc(CCN(C)c3cc(-c4ccccc4O)nnc3N)cc2)C(C)(C)C)cc1` [Compound 132, N′-[[4-(2-[[3-amino-6-(2-hydroxyphenyl)pyridazin-4-yl](methyl)amino]ethyl)phenyl]methyl]-N-[(2S)-1-[(2S,4R)-4-hydroxy-2-([[4-(4-methyl-1,3-thiazol-5-yl)phenyl]methyl]carbamoyl)pyrrolidin-1-yl]-3,3-dimethyl-1-oxobutan-2-yl]decanediamide], the DC50 (HiBit-BRG1) was greater than 1000 nM, the Dmax (HiBit-BRG1) was greater than 50% and the “BRM HiBit Degradation Maximum (%)” value (HiBiT-BRM) was “A (“A” indicates maximum degradation ≥75%)”. For the same compound, the DC50 (HiBiT-BRM) was greater than 100 nM.

For `Cc1ncsc1-c1ccc(CNC(=O)[C@@H]2C[C@@H](O)CN2C(=O)[C@@H](NC(=O)CCCCCCCCCCCCCCCC(=O)NCc2ccc(CCN(C)c3cc(-c4ccccc4O)nnc3N)cc2)C(C)(C)C)cc1` [Compound 133, N1-(4-(2-((3-amino-6-(2-hydroxyphenyl)pyridazin-4-yl)(methyl)amino)ethyl)benzyl)-N17-((S)-1-((2S,4R)-4-hydroxy-2-((4-(4-methylthiazol-5-yl)benzyl)carbamoyl)pyrrolidin-1-yl)-3,3-dimethyl-1-oxobutan-2-yl)heptadecanediamide], the DC50 (HiBit-BRG1) was greater than 1000 nM, the Dmax (HiBit-BRG1) was less than 50% and the “BRM HiBit Degradation Maximum (%)” value (HiBiT-BRM) was “B (“B” indicates maximum degradation ≥50%)”. For the same compound, the DC50 (HiBiT-BRM) was greater than 100 nM.

In the case of `Cc1ncsc1-c1ccc(CNC(=O)[C@@H]2C[C@@H](O)CN2C(=O)[C@@H](NC(=O)CCCCCCCCCNC(=O)c2ccc(CCNc3cc(-c4ccccc4O)nnc3N)cc2)C(C)(C)C)cc1` [Compound 134, (2S,4R)-1-[(2S)-2-(10-[[4-(2-[[3-amino-6-(2-hydroxyphenyl)pyridazin-4-yl]amino]ethyl)phenyl]formamido]decanamido)-3,3-dimethylbutanoyl]-4-hydroxy-N-[[4-(4-methyl-1,3-thiazol-5-yl)phenyl]methyl]pyrrolidine-2-carboxamide], the DC50 (HiBit-BRG1) is reported as greater than 1000 nM, the Dmax (HiBit-BRG1) is reported as less than 50% and the “BRM HiBit Degradation Maximum (%)” value (HiBiT-BRM) is reported as “B (“B” indicates maximum degradation ≥50%)”. For the same compound, the DC50 (HiBiT-BRM) was greater than 100 nM.

With `Nc1nnc(-c2ccccc2O)cc1OCCc1ccc(CNC(=O)CCCCNc2ccc3c(c2)C(=O)N(C2CCC(=O)NC2=O)C3)cc1` (stereo not drawn) [Compound 135, N-[[4-(2-[[3-amino-6-(2-hydroxyphenyl)pyridazin-4-yl]oxy]ethyl)phenyl]methyl]-5-[[2-(2,6-dioxopiperidin-3-yl)-3-oxo-1H-isoindol-5-yl]amino]pentanamide] the DC50 (HiBit-BRG1) was greater than 1000 nM, the Dmax (HiBit-BRG1) was less than 50% and the “BRM HiBit Degradation Maximum (%)” value (HiBiT-BRM) was “C (“C” indicates maximum degradation <50%)”. The DC50 (HiBiT-BRM) was greater than 1000 nM.

With `Cc1ncsc1-c1ccc(CNC(=O)[C@@H]2C[C@@H](O)CN2C(=O)[C@@H](NC(=O)CCCCCCCCCCCCCCCC(=O)NCc2ccc(CCNc3cc(-c4ccccc4O)nnc3N)cc2)C(C)(C)C)cc1` [Compound 136, N′-[[4-(2-[[3-amino-6-(2-hydroxyphenyl)pyridazin-4-yl]amino]ethyl)phenyl]methyl]-N-[(2S)-1-[(2S,4R)-4-hydroxy-2-([[4-(4-methyl-1,3-thiazol-5-yl)phenyl]methyl]carbamoyl)pyrrolidin-1-yl]-3,3-dimethyl-1-oxobutan-2-yl]heptadecanediamide] the DC50 (HiBit-BRG1) was greater than 1000 nM, the Dmax (HiBit-BRG1) was less than 50% and the “BRM HiBit Degradation Maximum (%)” value (HiBiT-BRM) was “B (“B” indicates maximum degradation ≥50%)”. The DC50 (HiBiT-BRM) was greater than 100 nM.

In the case of `Nc1nnc(-c2ccccc2O)cc1OCCc1ccc(CNC(=O)CCCCNc2ccc3c(c2)CN(C2CCC(=O)NC2=O)C3=O)cc1` (stereo not drawn) [Compound 137, N-(4-(2-((3-amino-6-(2-hydroxyphenyl)pyridazin-4-yl)oxy)ethyl)benzyl)-5-((2-(2,6-dioxopiperidin-3-yl)-1-oxoisoindolin-5-yl)amino)pentanamide], the DC50 (HiBit-BRG1) is reported as greater than 1000 nM, the Dmax (HiBit-BRG1) is reported as less than 50% and the “BRM HiBit Degradation Maximum (%)” value (HiBiT-BRM) is reported as “C (“C” indicates maximum degradation <50%)”. For the same compound, the DC50 (HiBiT-BRM) was greater than 1000 nM.
